In patent publication US12059425B2, “Heterocyclic compounds and uses thereof” (Kumquat Biosciences Inc., priority 2022, dated 2024):
pIC50: −log10 of the molar value.

Assays:
Assay type in all cases: biochemical
[1] = target: T1, wildtype K-Ras (Homo sapiens, UniProt P01116); assay: PPI-HTRF assay, wildtype K-Ras / SOS1 interaction; conditions: HTRF, K-Ras wt; read-out: PPI-HTRF-5 nM (K-Ras wt IC50)
T1 construct: made in house; host or cells: E. coli, e.g. BL21 (DE3)
Source text: (§1) This assay can be also used to assess a selective inhibition or reduction of signaling output of a mutant Ras protein relative to a wildtype, or relative to a different mutant Ras protein. For example, the equilibrium interaction of wildtype Kras or K-Ras mutant (e.g., wildtype or a mutant thereof) with SOS1 (e.g., hSOS1) can be assessed as a proxy or an indication for a subject compound's ability to bind and inhibit Ras protein. HTRF assay detects from (i) a fluorescence resonance energy transfer (FRET) donor (e.g., antiGST-Europium) that is bound to GST-tagged K-Ras mutant to (ii) a FRET acceptor (e.g., anti-6His-XL665) bound to a His-tagged hSOS1.
(§2) The assay buffer can contain ˜5 mM HEPES pH 7.4, ˜150 mM NaCl, ˜1 mM DTT, 0.05% BSA and 0.0025% (v/v) Igepal. A Ras working solution is prepared in an assay buffer containing typically a suitable amount of the protein construct (e.g., GST-tagged K-Ras mutant) and the FRET donor (e.g., antiGST-Eu(K) from Cisbio, France). A SOS1 working solution is prepared in an assay buffer containing suitable amount of the protein construct (e.g., His-hSOS1) and the FRET acceptor (e.g., anti-6His-XL665 from Cisbio, France). A suitable amount of the protein construct will depend on the range of activity or range of IC50 values being detected or under investigation. For detecting IC50 within a range of 500 nM, the protein constructs of the same range of molarity can be utilized.
(§3) A fixed volume of DMSO with or without test compound is transferred into a 384-well plate. Ras working solution is added to all wells of the test plate. SOS1 working solution is added to all wells except for those that are subsequently filled the inhibitor control solution. Upon incubation for about 10 minutes or longer, the fluorescence is measured with a M1000Pro plate reader (Tecan) using HTRF detection (excitation 337 nm, emission 1: 620 nm, emission 2: 665 nm). Compounds are tested in duplicate at different concentrations (for example, 10 μM, 2.5 μM, 0.63 μM, 0.16 μM, 0.04 μM, 0.01 μM test compound). The ratiometric data (i.e., emission 2 divided by emission 1) is used to calculate IC50 values against Ras using GraphPad Prism (GraphPad software). Following this general procedure, samples are tested with or without a subject compound disclosed herein including compounds exemplified in Table 1 to assess their abilities to inhibit a mutant K-Ras relative to another K-Ras (e.g., different mutant or wildtype). Signaling output measured in terms of IC50 values can be obtained, a ratio of IC50 against one mutant relative to another mutant can be calculated. For instance, a selective reduction of K-Ras G12D signaling output can be evidenced by a ratio greater than one. In particular, a selective reduction of K-Ras G12D signaling relative to K-Ras WT signaling is evidenced if the ratio of IC50 (against K-Ras WT) to IC50 (against K-Ras G12D) is greater than 1.

[2] = target: T2, K-Ras G12D (Homo sapiens, UniProt P01116, G12D); assay: PPI-HTRF assay, K-Ras G12D / SOS1 interaction; conditions: HTRF, K-Ras G12D; read-out: PPI-HTRF-5 nM (K-Ras G12D IC50)
T2 construct: made in house; host or cells: E. coli, e.g. BL21 (DE3)
T2 sequence (P01116 1-188 isoform P01116-2 G12D): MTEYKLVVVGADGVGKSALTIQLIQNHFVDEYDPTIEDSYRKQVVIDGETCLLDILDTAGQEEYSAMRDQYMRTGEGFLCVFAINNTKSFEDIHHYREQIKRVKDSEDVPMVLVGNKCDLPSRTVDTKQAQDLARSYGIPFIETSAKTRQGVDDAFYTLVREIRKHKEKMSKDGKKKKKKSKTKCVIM
Source text: as §1, §2, §3

[3] = target: T3, K-Ras G12S (Homo sapiens, UniProt P01116, G12S); assay: PPI-HTRF assay, K-Ras G12S / SOS1 interaction; conditions: read-out: PPI-HTRF-5 nM (K-Ras G12S IC50)
T3 construct: made in house; host or cells: E. coli, e.g. BL21 (DE3)
T3 sequence (P01116 1-188 isoform P01116-2 G12S): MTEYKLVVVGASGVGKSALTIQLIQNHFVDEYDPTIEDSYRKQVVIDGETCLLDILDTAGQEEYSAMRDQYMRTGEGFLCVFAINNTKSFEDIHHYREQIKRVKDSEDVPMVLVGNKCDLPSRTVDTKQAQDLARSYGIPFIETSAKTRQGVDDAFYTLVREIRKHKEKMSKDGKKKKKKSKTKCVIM
Source text: as §1, §2, §3

[4] = target: T4, K-Ras G12V (Homo sapiens, UniProt P01116, G12V); assay: PPI-HTRF assay, K-Ras G12V / SOS1 interaction; conditions: HTRF, K-Ras G12V; read-out: PPI-HTRF-5 nM (K-Ras G12V IC50)
T4 construct: made in house; host or cells: E. coli, e.g. BL21 (DE3)
T4 sequence (P01116 1-188 isoform P01116-2 G12V): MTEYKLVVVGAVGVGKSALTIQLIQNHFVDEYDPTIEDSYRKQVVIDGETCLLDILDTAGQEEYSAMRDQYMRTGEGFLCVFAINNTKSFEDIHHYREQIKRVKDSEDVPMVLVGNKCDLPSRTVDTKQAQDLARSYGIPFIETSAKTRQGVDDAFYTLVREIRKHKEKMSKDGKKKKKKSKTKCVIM
Source text: as §1, §2, §3

T1 sequence (P01116 1-188 isoform P01116-2): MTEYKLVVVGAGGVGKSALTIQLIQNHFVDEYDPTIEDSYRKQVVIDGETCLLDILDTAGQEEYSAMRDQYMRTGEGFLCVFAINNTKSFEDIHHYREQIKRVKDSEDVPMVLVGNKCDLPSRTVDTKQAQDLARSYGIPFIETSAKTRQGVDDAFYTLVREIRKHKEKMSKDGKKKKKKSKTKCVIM

Row | SMILES | pIC50 [1] | pIC50 [2] | pIC50 [3] | pIC50 [4]
1 | CN1c2nc(OC[C@@]34CCCN3C[C@H](F)C4)nc3c(F)c(-c4ccc(F)c5sc(N)c(C#N)c45)c(Cl)c(c23)OC2COCC21 (stereo partly drawn) [compound 166, 2-amino-4-(6-chloro-4-fluoro-2-(((2R,7aS)-2-fluorotetrahydro-1H-pyrrolizin-7a(5H)-yl)methoxy)-11-methyl-7a,8,10a,11-tetrahydro-10H-furo[3′,4′:2,3][1,4]oxazepino[5,6,7-de]quinazolin-5-yl)-7-fluorobenzo[b]thiophene-3-carbonitrile] | > 5.30 | > 5.30 | > 5.30 | > 5.30
2 | CN1c2nc(OC[C@@]34CCCN3C[C@H](F)C4)nc3c(F)c(-c4ccc(F)c5sc(N)c(C#N)c45)c(Cl)c(c23)OC2CN(C(=O)C(F)F)CC21 (stereo partly drawn) [compound 147, 2-amino-4-(6-chloro-9-(2,2-difluoroacetyl)-4-fluoro-2-(((2R,7aS)-2-fluorotetrahydro-1H-pyrrolizin-7a(5H)-yl)methoxy)-11-methyl-7a,8,9,10,10a,11-hexahydropyrrolo[3′,4′:2,3][1,4]oxazepino [5,6,7-de]quinazolin-5-yl)-7-fluorobenzo[b]thiophene-3-carbonitrile] | > 5.30 | > 5.30 | > 5.30 | > 5.30
3 | N#Cc1c(N)sc2c(F)ccc(-c3c(Cl)c4c5c(nc(OC[C@@]67CCCN6C[C@H](F)C7)nc5c3F)N3CCC(F)(F)CC3CO4)c12 (stereo partly drawn) [compound 203, 2-amino-4-(6-chloro-4,10,10-trifluoro-2-(((2R,7aS)-2-fluorotetrahydro-1H-pyrrolizin-7a(5H)-yl)methoxy)-8,8a,9,10,11,12-hexahydropyrido[2′,1′:3,4][1,4]oxazepino [5,6,7-de]quinazolin-5-yl)-7-fluorobenzo[b]thiophene-3-carbonitrile] | > 5.30 | > 5.30 | > 5.30 | > 5.30
4 | COCCN1c2nc(OC[C@@]34CCCN3C[C@H](F)C4)nc3c(F)c(-c4ccc(F)c5sc(N)c(C#N)c45)c(Cl)c(c23)OCC2COCC21 (stereo partly drawn) [compound 163, 2-amino-4-(6-chloro-4-fluoro-2-(((2R,7aS)-2-fluorotetrahydro-1H-pyrrolizin-7a(5H)-yl)methoxy)-12-(2-methoxyethyl)-8a,9,11a,12-tetrahydro-8H,11H-furo[3′,4′:6,7][1,5]oxazocino[4,3,2-de]quinazolin-5-yl)-7-fluorobenzo[b]thiophene-3-carbonitrile] | > 5.30 | > 5.30 | > 5.30 | > 5.30
5 | CC(C)C1NCC12CC[C@H]1COc3c(Cl)c(-c4ccc(F)c5sc(N)c(C#N)c45)c(F)c4nc(OC[C@@]56CCCN5C[C@H](F)C6)nc(c34)N1C2 (single isomer, unassigned) [compound 179] | – | > 5.30 | < 5.30 | –
6 | N#Cc1c(N)sc2c(F)ccc(-c3c(Cl)c4c5c(nc(OC[C@@]67CCCN6C[C@H](F)C7)nc5c3F)N(CC(F)F)C3CN(C=O)CC3O4)c12 (stereo partly drawn) [compound 201, 2-amino-4-(6-chloro-11-(2,2-difluoroethyl)-4-fluoro-2-(((2R,7aS)-2-fluorotetrahydro-1H-pyrrolizin-7a(5H)-yl)methoxy)-9-formyl-7a,8,9,10,10a,11-hexahydropyrrolo[3′,4′:2,3][1,4]oxazepino [5,6,7-de]quinazolin-5-yl)-7-fluorobenzo[b]thiophene-3-carbonitrile] | > 5.30 | > 5.30 | > 5.30 | > 5.30
7 | CN1c2nc(OC[C@@]34CCCN3C[C@H](F)C4)nc3c(F)c(-c4ccc(F)c5sc(N)c(C#N)c45)c(Cl)c(c23)OCC2CCCC21 (stereo partly drawn) [compound 165, 2-amino-4-(6-chloro-4-fluoro-2-(((2R,7aS)-2-fluorotetrahydro-1H-pyrrolizin-7a(5H)-yl)methoxy)-12-methyl-8a,9,10,11,11a,12-hexahydro-8H-cyclopenta[6,7][1,5]oxazocino[4,3,2-de]quinazolin-5-yl)-7-fluorobenzo[b]thiophene-3-carbonitrile] | – | > 5.30 | – | –
8 | CC(C)C1NCC12CC[C@H]1COc3c(Cl)c(-c4ccc(F)c5sc(N)c(C#N)c45)c(F)c4nc(OC[C@@]56CCCN5C[C@H](F)C6)nc(c34)N1C2 (single isomer, unassigned) [compound 130] | > 5.30 | – | > 5.30 | > 5.30

Second part, the compound after the results:

Row | pIC50 [1] | pIC50 [2] | pIC50 [3] | pIC50 [4] | SMILES
9 | > 5.30 | > 5.30 | > 5.30 | > 5.30 | N#Cc1c(N)sc2c(F)ccc(-c3c(Cl)c4c5c(nc(OCC67CCCN6C[C@H](F)C7)nc5c3F)N3CCC(OC(F)F)CC3CO4)c12 (single isomer, unassigned) [compound 118]
10 | > 5.30 | > 5.30 | > 5.30 | > 5.30 | N#Cc1c(N)sc2c(F)ccc(-c3c(Cl)c4c5c(nc(OC[C@@]67CCCN6C[C@H](F)C7)nc5c3F)N3C[C@@H](N)C[C@H]3CO4)c12 [compound 191, 2-amino-4-((8aS,10S)-10-amino-6-chloro-4-fluoro-2-(((2R,7aS)-2-fluorotetrahydro-1H-pyrrolizin-7a(5H)-yl)methoxy)-8a,9,10,11-tetrahydro-8H-pyrrolo[2′,1′:3,4][1,4]oxazepino[5,6,7-de]quinazolin-5-yl)-7-fluorobenzo[b]thiophene-3-carbonitrile]
11 | > 5.30 | > 5.30 | > 5.30 | > 5.30 | N#Cc1c(N)sc2c(F)ccc(-c3c(Cl)c4c5c(nc(OC[C@@]67CCCN6C[C@H](F)C7)nc5c3F)N3CCC(C(F)F)CC3CO4)c12 (stereo partly drawn) [compound 194, 2-amino-4-(6-chloro-10-(difluoromethyl)-4-fluoro-2-(((2R,7aS)-2-fluorotetrahydro-1H-pyrrolizin-7a(5H)-yl)methoxy)-8,8a,9,10,11,12-hexahydropyrido[2′,1′:3,4][1,4]oxazepino [5,6,7-de]quinazolin-5-yl)-7-fluorobenzo[b]thiophene-3-carbonitrile]
12 | > 5.30 | > 5.30 | > 5.30 | > 5.30 | N#Cc1c(N)sc2c(F)ccc(-c3c(Cl)c4c5c(nc(OC[C@@]67CCCN6C[C@H](F)C7)nc5c3F)N3C[C@H](N)C[C@H]3CO4)c12 [compound 195, 2-amino-4-((8aS,10R)-10-amino-6-chloro-4-fluoro-2-(((2R,7aS)-2-fluorotetrahydro-1H-pyrrolizin-7a(5H)-yl)methoxy)-8a,9,10,11-tetrahydro-8H-pyrrolo[2′,1′:3,4][1,4]oxazepino[5,6,7-de]quinazolin-5-yl)-7-fluorobenzo[b]thiophene-3-carbonitrile]
13 | > 5.30 | – | > 5.30 | > 5.30 | CC(O)C1C[C@H]2CCCN2c2nc(OC[C@@]34CCCN3C[C@H](F)C4)nc3c(F)c(-c4ccc(F)c5sc(N)c(C#N)c45)c(Cl)c(c23)O1 (single isomer, unassigned) [compound 122]
14 | > 5.30 | – | > 5.30 | > 5.30 | N#Cc1c(N)sc2c(F)ccc(-c3c(Cl)c4c5c(nc(OC[C@@]67CCCN6C[C@H](F)C7)nc5c3F)N3CCC[C@@H]3CC(C(F)F)O4)c12 (single isomer, unassigned) [compound 123]
15 | – | > 5.30 | – | – | CC(O)C1C[C@H]2CCCN2c2nc(OC[C@@]34CCCN3C[C@H](F)C4)nc3c(F)c(-c4ccc(F)c5sc(N)c(C#N)c45)c(Cl)c(c23)O1 (single isomer, unassigned) [compound 160]
